Our source for the inhibition in vivo values is ChEMBL document CHEMBL1143465, “New fluorinated pyrrolidine and azetidine amides as dipeptidyl peptidase IV inhibitors” (Bioorg Med Chem Lett, 2005).

Each structure is given as a SMILES string.

In this assay the test system is Mus musculus. The assay can be described thus: Percent inhibition of blood glucose concentration measured 30 min after 10 mg/kg dosing to fasted mice followed 15 min later by 1 g/kg oral glucose load. Format: functional.
`N[C@H](C(=O)N1CC(F)C(F)C1)C1CCCCC1` (stereo partly specified): the inhibition in vivo at 10 mg/kg turned out to be 60%.

For the compound `N[C@H](C(=O)N1CC(F)(F)C(F)(F)C1)C1CCCCC1`, the inhibition in vivo at 10 mg/kg stood at 59%.

Consider `N[C@H](C(=O)N1CCCC1)C1CCCCC1`, for which the inhibition in vivo at 10 mg/kg worked out at 69%.

Turning to `N[C@H](C(=O)N1CCC(F)(F)C1)C1CCCCC1`, the inhibition in vivo at 10 mg/kg amounted to 78%.

As for `N[C@H](C(=O)N1CC(F)(F)C1)C1CCCCC1`, the inhibition in vivo at 10 mg/kg was found to be 109%.

Regarding `N[C@H](C(=O)N1CC(F)C1)C1CCCCC1`, the inhibition in vivo at 10 mg/kg is 70%.

One may read the inhibition in vivo as the drop in the measured response relative to a control, in per cent.
